“And” between values parts separate entries of the source, which are not always exact repeats. Equal values may be shown once.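 Method: 48-hour compound exposure of cells in 96-well plates, five concentrations, linear interpolation of endpoints. GI50 marks 50% less growth. TGI marks complete inhibition of growth.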
Assays:
Test in all cases: inhibition of tumour cell growth, NCI panel, 48 h
[1] = system: NCI-H226 lung
[2] = system: T-47D breast
[3] = system: RXF 393 renal
[4] = system: 786-0 renal
[5] = system: MCF7 breast
[6] = system: A498 renal
[7] = system: UO-31 renal
[8] = system: EKVX NSCLC
[9] = system: MDA-MB-231 breast
[10] = system: CAKI-1 renal

Compound	GI50 [1]	TGI [1]	GI50 [2] [µM]	TGI [2]	GI50 [3] [µM]	TGI [3] [µM]	GI50 [4]	TGI [4]	GI50 [5] [µM]	TGI [5]	GI50 [6] [µM]	TGI [6] [µM]	GI50 [7]	TGI [7]	GI50 [8] [µM]	TGI [8] [µM]	GI50 [9]	TGI [9]	GI50 [10]	TGI [10]
COc1ccc(C2C(c3ccccc3)C(=O)N2c2cc(OC)c(OC)c(OC)c2)cc1I (centres undefined)	15.6 µM	> 100 µM	> 100	> 100 µM	0.324	> 100	0.397 µM	> 100 µM	0.336	> 100 µM	0.241	0.777	0.693 µM	> 100 µM	0.658	> 100	0.455 µM	> 100 µM		
COc1ccc2[nH]c(-c3cccc(N(C)C)c3)cc(=O)c2c1	0.581 µM					0.351	0.539 µM	> 100 µM		> 100 µM			0.633 µM	> 100 µM	1.17	30.7	2.1 µM	> 100 µM	0.418 µM	> 100 µM
COc1ccccc1CNC(=O)C1c2ccccc2C(=O)N(CC(C)C)C1c1cccs1 (centres undefined)	20.4 µM	72.4 µM	20.2	89.8 µM	17.3	48	20.3 µM	51.2 µM	27.2	> 100 µM	11.9	51.5	17.7 µM	72.5 µM			26.8 µM	> 100 µM	18.1 µM	78.8 µM
COc1ccc(/C(Cl)=C(\C=O)c2ccc(OC)c(OC)c2)cc1OC		99.9 µM				99.7		> 100 µM		> 100 µM		> 100		> 100 µM		> 100		> 100 µM		> 100 µM
C[C@@]1(c2ncncc2F)NC(=O)c2cc(-c3cn[nH]c3)ccc21	20.1 µM	> 100 µM	27.9	> 100 µM	15.2	37.3	23.6 µM	91.1 µM	21	> 100 µM	14.4	50.5	17.2 µM	72.8 µM	22.1	> 100	27.6 µM	89.5 µM		
CCOC(=O)c1c(C)n(CC(C)C)c2c1cc1oc(=O)c(=O)n3cnc2c13	9.63 µM	29.2 µM			12.9	49.7	20.1 µM	> 50 µM	12.5	45.3 µM	14.2	41.3	20.7 µM	> 50 µM	17.4	> 50	8.18 µM	22.1 µM	11.4 µM	29.2 µM
CC(F)(F)c1cc(F)ccc1-c1sc2cc(O)ccc2c1Oc1ccc(/C=C/C(=O)O)cc1	5.78 µM	25 µM	7.1	50 µM	2.89	14.5	10.2 µM	31.2 µM		15.2 µM			12.9 µM	31.5 µM	10.6	39.6	14.3 µM	35 µM	6.26 µM	20.2 µM
Cc1[nH]nc2c1N=C(c1ccccc1F)c1cc(C#N)ccc1N2	0.322 µM	4.11 µM	1.36	> 15.2 µM	0.105	1.99	0.801 µM	7.27 µM	0.119	> 16.8 µM	0.146	1.08	0.435 µM	4.01 µM			2.59 µM	11.7 µM	0.051 µM	5.66 µM
CN1CCN(Cc2ccc(NC(=O)c3[nH]ncc3Nc3ncnc4sccc34)cc2)CC1	0.169 µM	> 100 µM	0.699	> 100 µM	0.171	0.535	0.351 µM	> 100 µM	0.126	> 100 µM	0.0172	1.12	0.357 µM	3.54 µM	0.425	3.53			0.563 µM	> 100 µM
COc1cc(-c2nc(SCC(=O)Nc3ccc(C(C)=O)cc3)[nH]c(=O)c2C#N)cc(OC)c1OC	89.8 µM	> 100 µM	34	> 100 µM	40.1	> 100	41.7 µM	> 100 µM	40	> 100 µM	21.3	85	36.6 µM	> 100 µM	> 100	> 100	38.7 µM	> 100 µM		
COc1cc(OC)c(OC)cc1/C=C1\C=Cc2ccccc21		> 100 µM		> 100 µM		49.7		> 100 µM		> 100 µM				64.2 µM		> 100		50.9 µM		
CC(C)c1cc(CNc2nc(Nc3cc(C4CC4)[nH]n3)cc(N3CCN(C)CC3)n2)on1	0.363 µM and 0.0576 µM	4.18 µM and 3.6 µM		> 10 µM and 9.84 µM			1.43 µM and 0.223 µM	> 10 µM and 3.72 µM		> 10 µM and 13.1 µM			2 µM and 0.688 µM	> 10 µM and 5.9 µM	0.587	> 10	1.29 µM and 0.151 µM	> 10 µM and 5.42 µM	1.88 µM and 1.12 µM	> 10 µM and 4.09 µM
CC12CCc3ccccc3C1=Nc1ccccc12 (centres undefined)		89.8 µM		> 100 µM		> 100		> 100 µM		> 100 µM				> 100 µM		> 100		> 100 µM		51.6 µM
CCOC(=O)N1C/C(=C/c2ccc(OC)cc2)C(=O)/C(=C/c2ccc(OC)cc2)C1	3.29 µM	18.9 µM	3.79	> 100 µM	1.56	3.09	1.79 µM	3.4 µM	0.363	3.2 µM	3.13	> 29	1.9 µM	5.19 µM			2.38 µM	6.48 µM	4.67 µM	> 70.1 µM
CCOC(=O)c1cc2cc(NC(=O)c3cc4cc([N+](=O)[O-])ccc4n3C)ccc2n1C	12 µM	46.6 µM	42	> 100 µM	41	> 100	17.6 µM	31.9 µM	44.2	> 100 µM			> 100 µM	> 100 µM	20	> 100	2.69 µM	16.3 µM	30.9 µM	> 100 µM
COc1ccc(OC)c(-c2cc(-c3ccccc3)nn2-c2ccc(S(N)(=O)=O)cc2)c1	15 µM	33.6 µM					11.9 µM	24.6 µM	3.08	16 µM			17.8 µM	50.4 µM	18.1	39.1	11.1 µM	27 µM	14.8 µM	32.8 µM
Oc1ccc(Br)cc1/C=N/NC(=S)NC12CC3CC(CC(C3)C1)C2	1.95 µM	4.8 µM	2.15	8.33 µM	1.52	3.36	2.32 µM	5.05 µM	1.86	5.92 µM	2.18	7.19	1.33 µM	2.78 µM			1.95 µM	5.54 µM	2.67 µM	8.59 µM
COc1ccc(NC(=O)Nc2ccc(Nc3nc(C)cc(Nc4ccc(C)cc4)n3)cc2)cc1			1.78	4.24 µM	1.61	3.12	0.253 µM	0.702 µM			7.29	18.8	1.48 µM	2.82 µM	2.03	4.42	0.894 µM	2.46 µM		
O=C(N=Nc1c(O)[nH]c2c(Cl)cc(Cl)cc12)c1ccncc1		> 100 µM				61.4		36.4 µM		> 100 µM		> 100		> 100 µM		> 100		39.4 µM		39 µM
CC(C)=CCC/C(C)=C/CC/C(=C/COP(=O)(OCc1ccc([N+](=O)[O-])o1)N(C)CCCCCl)CC=C(C)C (centres undefined)			38	> 100 µM	6.03	22.8	5.7 µM	19.2 µM	1.88	5.91 µM			5.56 µM	18.2 µM	3.73	19.8	8.58 µM	22.8 µM	4.06 µM	19.7 µM
c1ccc2cc(OCC3CO3)c(OCC3CO3)cc2c1 (centres undefined)				45.4 µM		1.47		12.9 µM		10.1 µM		24.7		21.8 µM		24.1		55.1 µM		37.6 µM
O=C1/C(=C/c2ccc([N+](=O)[O-])s2)Oc2ccccc21	2.24 µM	5.75 µM	0.29	4.12 µM	1.1	2.85	2.42 µM	6.29 µM	0.75	5.02 µM	3.22	18	0.323 µM	2.13 µM			0.279 µM	0.818 µM	2.2 µM	5.22 µM
Cc1ccc(S(=O)(=O)NC(CCC(=O)Nc2ccccc2)C(=O)Nc2ccccc2)cc1 (centres undefined)	0.447 µM	2.59 µM	0.206	0.934 µM	0.662	2.25	0.491 µM	2.04 µM			0.142	0.897	0.274 µM	3.39 µM	0.401	2.3				

— PubChem BioAssay (NCI)
